Test results published in ChEMBL document CHEMBL1138039, “Discovery and pharmacological evaluation of growth hormone secretagogue receptor antagonists” (J Med Chem, 2006).
pIC50: −log10 of the molar value. Activity calls are given as the source filed them. No cut-off for these calls is given here.

Test system: not listed separately
Assay: Half life in rat
Assay type: ADME, organism-based
Settings: in vivo
Compound `Nc1nc(N)c(-c2ccc(NC(=O)C3CC3)cc2)c(COCc2ccccc2)n1` has a half-life of 2.4 h.

Test system: Mus musculus
Assay: Ratio of drug level in brain against plasma in orally dosed DIO mouse
Assay type: ADME, organism-based
Settings: po
In the case of `CC(C)(C)NC(=O)Nc1ccc(-c2c(N)nc(N)nc2COCc2ccccc2)cc1`, the BBR was “Not Active”.

Test system: Mus musculus
Assay: Reduction of cumulative food intake in fasted DIO mouse at 30 mg/kg, po after 20 mins
Assay type: functional
Set-up: scale not given: the % may be the effect or the level left
Settings: not given
`CC(C)(C)NC(=O)Nc1ccc(-c2c(N)nc(N)nc2COCc2ccccc2)cc1` showed an Activity of 40%.

Test system: Mus musculus
Assay: Reduction of cumulative food intake in fasted DIO mouse at 30 mg/kg, ip after 4 hrs
Assay type: functional, organism-based
Set-up: dose 30 mg/kg
Settings: not given
For `Nc1nc(N)c(-c2ccc(NCc3ccc(Cl)cc3)cc2)c(COCc2ccccc2)n1`, the Activity was “Active”.

Test system: not listed separately
Assay: Ratio of drug level in brain against plasma in rat after 8 hrs
Assay type: ADME, organism-based
Settings: read-out: BBR
With `Nc1nc(N)c(-c2ccc(NC(=O)C3CC3)cc2)c(COCc2ccccc2)n1` the Kp at 8 h was 0.97. Work on `Nc1nc(N)c(-c2ccc(NCc3ccc(Cl)cc3)cc2)c(COCc2ccccc2)n1` yielded a Kp at 8 h of 1.4.

Test system: Mus musculus
Assay: Decrease of food intake in C57BL/6J mouse at 50 mg/kg, po after 1 day
Assay type: functional, organism-based
Set-up: dose 50 mg/kg
Settings: not given
For `Nc1nc(N)c(-c2ccc(NC(=O)C3CC3)cc2)c(COCc2ccccc2)n1`, the Activity was “Active”.

Test system: not listed separately
Assay: AUC in orally dosed DIO mouse
Assay type: ADME, organism-based
Settings: plasma, po
Compound `CC(C)(C)NC(=O)Nc1ccc(-c2c(N)nc(N)nc2COCc2ccccc2)cc1` has an AUC of 12300 ng·h/mL.

Test system: Mus musculus
Assay: Decrease of body weight in C57BL/6J mouse at 50 mg/kg, po after 14 days
Assay type: functional
Set-up: scale not given: the % may be the effect or the level left
Settings: not given
`Nc1nc(N)c(-c2ccc(NC(=O)C3CC3)cc2)c(COCc2ccccc2)n1` gave an Activity of 5.4%.

Test system: not listed separately
Assay: Bioavailability in rat
Assay type: ADME, organism-based
Settings: in vivo
With `Nc1nc(N)c(-c2ccc(NC(=O)C3CC3)cc2)c(COCc2ccccc2)n1` the bioavailability was 32%. `CCc1nc(N)nc(N)c1-c1ccc(NCc2ccc(Cl)cc2)cc1` showed a bioavailability of 75%.

Molecular target: T1, Dihydrofolate reductase (Homo sapiens) (UniProt P00374)
T1 sequence (whole entry): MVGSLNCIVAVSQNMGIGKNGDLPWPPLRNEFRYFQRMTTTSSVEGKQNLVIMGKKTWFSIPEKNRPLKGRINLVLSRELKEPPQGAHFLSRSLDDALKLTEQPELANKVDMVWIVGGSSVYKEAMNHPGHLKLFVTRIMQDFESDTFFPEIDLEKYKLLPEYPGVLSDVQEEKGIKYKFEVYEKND
Assay: Inhibition of human recombinant DHFR assessed as rate of depletion of NADPH at 1 uM
Settings: not given
With `CCc1nc(N)nc(N)c1-c1ccc2c(c1)ncn2Cc1ccc(S(C)(=O)=O)cc1` the inhibition was 78%. Compound `CCc1nc(N)nc(N)c1-c1ccc(NCc2ccc(S(C)(=O)=O)cc2)cc1` has an inhibition of 99%.

Test system: Rattus norvegicus
Assay: Reduction of cumulative food intake in Sprague-Dawley rat at 50 mg/kg, po after 24 hrs
Assay type: functional
Set-up: scale not given: the % may be the effect or the level left
Settings: not given
Compound `Nc1nc(N)c(-c2ccc(NC(=O)C3CC3)cc2)c(COCc2ccccc2)n1` has an Activity of 9%.

Test system: Mus musculus
Assay: Decrease of epididymal fat pad weight in C57BL/6J mouse at 50 mg/kg, po after 14 days
Assay type: functional
Set-up: scale not given: the % may be the effect or the level left
Settings: not given
`Nc1nc(N)c(-c2ccc(NC(=O)C3CC3)cc2)c(COCc2ccccc2)n1` showed an Activity of 20%.

Test system: Mus musculus
Assay: Reduction of cumulative food intake in fasted DIO mouse at 30 mg/kg, ip after 24 hrs
Assay type: functional, organism-based
Set-up: dose 30 mg/kg
Settings: not given
For `Nc1nc(N)c(-c2ccc(NCc3ccc(Cl)cc3)cc2)c(COCc2ccccc2)n1`, the Activity was “Active”.

Molecular target: T2, Growth hormone secretagogue receptor type 1 (Homo sapiens, UniProt Q92847)
T2 sequence (Q92847 whole entry): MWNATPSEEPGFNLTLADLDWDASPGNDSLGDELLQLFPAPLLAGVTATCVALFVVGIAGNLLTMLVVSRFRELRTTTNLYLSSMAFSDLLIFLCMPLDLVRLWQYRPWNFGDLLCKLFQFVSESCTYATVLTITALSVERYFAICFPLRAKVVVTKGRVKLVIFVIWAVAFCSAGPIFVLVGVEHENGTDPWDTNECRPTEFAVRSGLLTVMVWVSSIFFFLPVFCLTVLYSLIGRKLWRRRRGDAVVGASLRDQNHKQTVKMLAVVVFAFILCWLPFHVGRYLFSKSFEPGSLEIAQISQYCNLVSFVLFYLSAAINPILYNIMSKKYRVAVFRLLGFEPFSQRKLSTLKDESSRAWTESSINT
Assay: Activity at GHS receptor by calcium flux assay in CHO-K cells
Assay type: functional, cell-based
Settings: not given
For `CCc1nc(N)nc(N)c1-c1ccc2c(c1)nc(C1CCCC1)n2Cc1ccc(S(C)(=O)=O)cc1`, the pIC50 was 6.96. With `Nc1nc(N)c(-c2ccc(NC(=O)C3CCCO3)cc2)c(COCc2ccccc2)n1` (configuration not stated) the pIC50 was < 5.00. Work on `CC(NC(=O)Nc1ccc(-c2c(N)nc(N)nc2COCc2ccccc2)cc1)c1ccccc1` (configuration not stated) yielded a pIC50 of 8.00. For `CC(=O)Nc1ccc(-c2c(N)nc(N)nc2COCc2ccccc2)cc1`, the pIC50 was < 5.00. For `CC(C)(C)NC(=O)Nc1ccc(-c2c(N)nc(N)nc2COCc2ccccc2)cc1`, the pIC50 was 8.15. In the case of `CN(C(=O)C1CCCC1)c1ccc(-c2c(N)nc(N)nc2COCc2ccccc2)cc1`, the pIC50 was < 5.00. With `Nc1nc(N)c(-c2ccc(NC(=O)C3CC3)cc2)c(COCc2ccccc2)n1` the pIC50 was 6.73. `CC(C)NC(=O)Nc1ccc(-c2c(N)nc(N)nc2COCc2ccccc2)cc1` gave a pIC50 of 7.25. In the case of `CCc1nc(N)nc(N)c1-c1ccc2c(c1)ncn2Cc1ccc(S(C)(=O)=O)cc1`, the pIC50 was 7.96. Work on `CCc1nc(N)nc(N)c1-c1ccc(NCc2ccc(S(C)(=O)=O)cc2)cc1` yielded a pIC50 of 7.72. Compound `Nc1nc(N)c(-c2ccc(NC(=O)Nc3ccccc3)cc2)c(COCc2ccccc2)n1` has a pIC50 of 7.06.

Test system: Mus musculus
Assay: Reduction of cumulative food intake in fasted DIO mouse at 100 mg/kg, po after 20 mins
Assay type: functional
Set-up: scale not given: the % may be the effect or the level left
Settings: not given
Work on `CC(C)(C)NC(=O)Nc1ccc(-c2c(N)nc(N)nc2COCc2ccccc2)cc1` yielded an Activity of 40%.

Test system: not listed separately
Assay: AUC in orally dosed rat
Assay type: ADME, organism-based
Settings: plasma, po
`Nc1nc(N)c(-c2ccc(NC(=O)C3CC3)cc2)c(COCc2ccccc2)n1` showed an AUC of 820 ng·h/mL.

Test system: Mus musculus
Assay: Reduction of cumulative food intake in fasted DIO mouse at 30 mg/kg, ip after 2 hrs
Assay type: functional, organism-based
Set-up: dose 30 mg/kg
Settings: not given
For `Nc1nc(N)c(-c2ccc(NCc3ccc(Cl)cc3)cc2)c(COCc2ccccc2)n1`, the Activity was “Active”.

Molecular target: T2, Growth hormone secretagogue receptor type 1
Assay: Inhibition of [125I]ghrelin binding to GHS receptor in CHO-K cells
Assay type: cell-based
Settings: not given
Work on `CCc1nc(N)nc(N)c1-c1ccc2c(c1)nc(C1CCCC1)n2Cc1ccc(S(C)(=O)=O)cc1` yielded a pIC50 of 8.10. `Nc1nc(N)c(-c2ccc(NC(=O)C3CCCO3)cc2)c(COCc2ccccc2)n1` (configuration not stated) showed a pIC50 of 6.41. `CC(=O)Nc1ccc(-c2c(N)nc(N)nc2COCc2ccccc2)cc1` showed a pIC50 of 5.64. For `CN(C(=O)C1CCCC1)c1ccc(-c2c(N)nc(N)nc2COCc2ccccc2)cc1`, the pIC50 was 5.78. Compound `Nc1nc(N)c(-c2ccc(NC(=O)C3CC3)cc2)c(COCc2ccccc2)n1` has a pIC50 of 7.18. `CCc1nc(N)nc(N)c1-c1ccc2c(c1)ncn2Cc1ccc(S(C)(=O)=O)cc1` gave a pIC50 of 8.40. In the case of `CCc1nc(N)nc(N)c1-c1ccc(NCc2ccc(S(C)(=O)=O)cc2)cc1`, the pIC50 was 8.15.

Test system: Mus musculus
Assay: Reduction of cumulative food intake in fasted DIO mouse at 100 mg/kg, po after 1 hr
Assay type: functional
Set-up: scale not given: the % may be the effect or the level left
Settings: not given
`CC(C)(C)NC(=O)Nc1ccc(-c2c(N)nc(N)nc2COCc2ccccc2)cc1` gave an Activity of 60%.

Test system: Mus musculus
Assay: Decrease of plasma insulin level in C57BL/6J mouse at 50 mg/kg, po after 14 days
Assay type: functional, organism-based
Set-up: dose 50 mg/kg
Settings: not given
For `Nc1nc(N)c(-c2ccc(NC(=O)C3CC3)cc2)c(COCc2ccccc2)n1`, the Activity was “Active”.

Test system: not listed separately
Assay: Ratio of drug level in brain against plasma in rat after 4 hrs
Assay type: ADME, organism-based
Settings: read-out: BBR
In the case of `Nc1nc(N)c(-c2ccc(NC(=O)C3CC3)cc2)c(COCc2ccccc2)n1`, the Kp at 4 h was 1.1.

Test system: Mus musculus
Assay: Change in lean body mass of C57BL/6J mouse at 50 mg/kg, po after 14 days
Assay type: functional, organism-based
Set-up: dose 50 mg/kg
Settings: not given
With `Nc1nc(N)c(-c2ccc(NC(=O)C3CC3)cc2)c(COCc2ccccc2)n1` the Activity was “inactive”.

Molecular target: T3, Dihydrofolate reductase (Homo sapiens, UniProt P00374)
T3 sequence (P00374 whole entry): T1 sequence (whole entry)
Assay: Inhibition of human recombinant DHFR assessed as rate of depletion of NADPH
Settings: not given
Compound `CCc1nc(N)nc(N)c1-c1ccc2c(c1)nc(C1CCCC1)n2Cc1ccc(S(C)(=O)=O)cc1` has a pIC50 of 5.74. In the case of `CC(C)(C)NC(=O)Nc1ccc(-c2c(N)nc(N)nc2COCc2ccccc2)cc1`, the pIC50 was < 4.00. Compound `Nc1nc(N)c(-c2ccc(NC(=O)C3CC3)cc2)c(COCc2ccccc2)n1` has a pIC50 of 4.55. For `CC(C)NC(=O)Nc1ccc(-c2c(N)nc(N)nc2COCc2ccccc2)cc1`, the pIC50 was < 5.00. For `CCc1nc(N)nc(N)c1-c1ccc(NCc2ccc(S(C)(=O)=O)cc2)cc1`, the pIC50 was > 8.00. With `Nc1nc(N)c(-c2ccc(NC(=O)Nc3ccccc3)cc2)c(COCc2ccccc2)n1` the pIC50 was < 5.00.

Test system: not listed separately
Assay: Half life in DIO mouse
Assay type: ADME, organism-based
Settings: in vivo
Work on `CC(C)(C)NC(=O)Nc1ccc(-c2c(N)nc(N)nc2COCc2ccccc2)cc1` yielded a half-life of 4.5 h.

Test system: Mus musculus
Assay: Reduction of cumulative food intake in fasted DIO mouse at 30 mg/kg, po after 1 hr
Assay type: functional
Set-up: scale not given: the % may be the effect or the level left
Settings: not given
In the case of `CC(C)(C)NC(=O)Nc1ccc(-c2c(N)nc(N)nc2COCc2ccccc2)cc1`, the Activity was 60%.

Test system: Rattus norvegicus
Assay: Reduction of cumulative food intake in Sprague-Dawley rat at 50 mg/kg, po after 32 hrs
Assay type: functional
Set-up: scale not given: the % may be the effect or the level left
Settings: not given
Compound `Nc1nc(N)c(-c2ccc(NC(=O)C3CC3)cc2)c(COCc2ccccc2)n1` has an Activity of 11%.

Test system: not listed separately
Assay: Ratio of drug level in brain against plasma in rat after 1 hr
Assay type: ADME, organism-based
Settings: read-out: BBR
`Nc1nc(N)c(-c2ccc(NC(=O)C3CC3)cc2)c(COCc2ccccc2)n1` gave a Kp at 1 h of 0.26. Work on `Nc1nc(N)c(-c2ccc(NCc3ccc(Cl)cc3)cc2)c(COCc2ccccc2)n1` yielded a Kp at 1 h of 3.1.
